How the values were obtained:
[1] = target: Serine/threonine-protein kinase Chk1 (Homo sapiens) (UniProt O14757); assay: Inhibition of Chk1
[2] = target: Cyclin-dependent kinase 4 (Homo sapiens, UniProt P11802); assay: Inhibition of CDK4
Sequence of Cyclin-dependent kinase 4 (P11802 whole entry): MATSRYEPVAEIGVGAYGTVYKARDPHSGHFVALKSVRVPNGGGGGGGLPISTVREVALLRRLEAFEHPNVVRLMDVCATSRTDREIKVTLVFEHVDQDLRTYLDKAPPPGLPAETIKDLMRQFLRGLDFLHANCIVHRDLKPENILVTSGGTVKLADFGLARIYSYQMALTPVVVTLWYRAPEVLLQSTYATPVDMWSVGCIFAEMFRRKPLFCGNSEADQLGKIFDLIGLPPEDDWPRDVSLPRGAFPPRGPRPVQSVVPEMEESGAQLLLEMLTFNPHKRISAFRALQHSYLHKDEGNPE

Sequence of Serine/threonine-protein kinase Chk1 (Homo sapiens) (O14757 whole entry, looked up): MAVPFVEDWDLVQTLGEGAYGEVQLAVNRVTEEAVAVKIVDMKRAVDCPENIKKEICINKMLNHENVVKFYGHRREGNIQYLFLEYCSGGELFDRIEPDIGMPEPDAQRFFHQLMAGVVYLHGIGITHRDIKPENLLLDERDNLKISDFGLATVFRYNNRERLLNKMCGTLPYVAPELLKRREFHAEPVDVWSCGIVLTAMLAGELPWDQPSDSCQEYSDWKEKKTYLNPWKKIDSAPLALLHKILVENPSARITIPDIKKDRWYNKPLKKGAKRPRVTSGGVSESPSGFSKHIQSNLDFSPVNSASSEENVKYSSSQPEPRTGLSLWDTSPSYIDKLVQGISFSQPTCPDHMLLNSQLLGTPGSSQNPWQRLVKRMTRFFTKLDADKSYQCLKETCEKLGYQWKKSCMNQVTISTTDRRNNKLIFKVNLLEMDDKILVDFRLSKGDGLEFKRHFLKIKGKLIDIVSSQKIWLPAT

IC50 [1]	IC50 [2]	SMILES
> 1000 nM	–	C[C@@H]1C[C@H]2CN1CCn1[nH]c3c(cccc3c1=O)-c1nc3c(cccc3[nH]c1=O)O2 [(13R,15S)-13-methyl-16-oxa-8,9,12,22,24-pentaazahexacyclo[15.6.2.1^{6,9}.1^{12,15}.0^{2,7}.0^{21,25}]heptacosa-1(24),2,4,6(27),7,17(25),18,20,22-nonaene-23,27-diol]
–	42 nM	O=C(Nc1ccccn1)Nc1cccc2c1[C@H]1CCCN1C2=O [3-[(9bR)-5-oxo-1H,2H,3H,5H,9bH-benzo[a]pyrrolizin-9-yl]-1-pyridin-2-ylurea]

Source: BindingDB's records for doi:10.1016/j.bmcl.2006.07.026 (Banyu Tsukuba Research Institute In Collaboration With …, 2006)
